Legend:
Test in all cases: relative viability (nuclei count vs DMSO), 5 days (fraction); higher = more cells survive
[1] = compound: COc1cc2ncn(-c3cc(OCc4ccccc4C(F)(F)F)c(C(N)=O)s3)c2cc1OC + CC(=O)c1c(C)c2cnc(Nc3ccc(N4CCNCC4)cn3)nc2n(C2CCCC2)c1=O [Palbociclib] (partner 0.5 µM)
In short: (§1)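 Lung cancer cell lines in 1536-well plates were dosed by pin tool the day after seeding, either with one drug alone or with a fixed anchor-drug dose plus five library-drug doses (not always all listed) in √10 steps. After 5 days, cells were fixed and their nuclei stained in one step (final 0.05% Triton X-100, 1% formaldehyde, 1 ug/ml Hoechst), then counted on 4× images. Relative viability is the nuclei count in treated wells divided by that in vehicle wells. Values are medians of duplicate plates.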

[2] = compound: COc1cc2ncn(-c3cc(OCc4ccccc4C(F)(F)F)c(C(N)=O)s3)c2cc1OC + Cc1nc(NC(=O)N2CCC[C@H]2C(N)=O)sc1-c1ccnc(C(C)(C)C(F)(F)F)c1 [Alpelisib] (partner 2 µM)
In short: as §1

[3] = compound: COc1cc2ncn(-c3cc(OCc4ccccc4C(F)(F)F)c(C(N)=O)s3)c2cc1OC + CC(C)C[C@H](NC(=O)[C@H](Cc1ccccc1)NC(=O)c1cnccn1)B(O)O [Bortezomib] (partner 0.002 µM)
In short: as §1

[4] = compound: COc1cc2ncn(-c3cc(OCc4ccccc4C(F)(F)F)c(C(N)=O)s3)c2cc1OC + Cc1nc(Nc2ncc(C(=O)Nc3c(C)cccc3Cl)s2)cc(N2CCN(CCO)CC2)n1 [Dasatinib] (partner 0.075 µM)
In short: as §1

| Cell Line | relative viability ([1]; first compound 0.05 µM) | relative viability ([1]; first compound 0.1581 µM) | relative viability ([1]; first compound 0.5 µM) | relative viability ([1]; first compound 1.581 µM) | relative viability ([1]; first compound 5 µM) | relative viability ([2]; first compound 0.05 µM) | relative viability ([2]; first compound 0.1581 µM) | relative viability ([2]; first compound 0.5 µM) | relative viability ([2]; first compound 1.581 µM) | relative viability ([2]; first compound 5 µM) | relative viability ([3]; first compound 0.05 µM) | relative viability ([3]; first compound 0.1581 µM) | relative viability ([3]; first compound 0.5 µM) | relative viability ([3]; first compound 1.581 µM) | relative viability ([3]; first compound 5 µM) | relative viability ([4]; first compound 0.05 µM) | relative viability ([4]; first compound 0.1581 µM) | relative viability ([4]; first compound 0.5 µM) | relative viability ([4]; first compound 1.581 µM) | relative viability ([4]; first compound 5 µM) |
| --- | --- | --- | --- | --- | --- | --- | --- | --- | --- | --- | --- | --- | --- | --- | --- | --- | --- | --- | --- | --- |
| NCI-H2085 | 0.423 | 0.476 | 0.488 | 0.38 | 0.244 | 1.01 | 0.959 | 0.75 | 0.4 | 0.386 | 0.968 | 1.11 | 0.796 | 0.529 | 0.362 | 0.23 | 0.233 | 0.221 | 0.217 | 0.209 |
| NCI-H1395 | 0.614 | 0.763 | 0.507 | 0.377 | 0.28 | 1.04 | 1.11 | 0.726 | 0.342 | 0.375 | – | – | – | – | – | 0.413 | 0.438 | 0.455 | 0.358 | 0.306 |
| NCI-H1648 | 0.222 | 0.309 | 0.234 | 0.273 | 0.255 | – | – | – | – | – | – | – | – | – | – | – | – | – | – | – |
| NCI-H460 | 0.185 | 0.172 | 0.173 | 0.0095 | 0.0133 | 0.51 | 0.537 | 0.0496 | 0.0115 | 0.0095 | 1.08 | 0.805 | 0.487 | 0.0103 | 0.0108 | 0.593 | 0.636 | 0.283 | 0.0166 | 0.0348 |
| A549 | – | – | – | – | – | 0.802 | 0.753 | 0.186 | 0.0572 | 0.0466 | – | – | – | – | – | – | – | – | – | – |
| IA-LM | – | – | – | – | – | 0.701 | 0.493 | 0.107 | 0.0655 | 0.0465 | 0.747 | 0.479 | 0.0694 | 0.0622 | 0.0584 | – | – | – | – | – |
| EKVX | 0.362 | 0.438 | 0.371 | 0.248 | 0.219 | 0.889 | 0.982 | 0.834 | 0.21 | 0.215 | 1.1 | 0.773 | 0.991 | 0.195 | 0.487 | 0.661 | 0.604 | 0.425 | 0.271 | 0.224 |
| ChaGo-K-1 | 0.948 | 0.878 | 0.649 | 0.247 | 0.147 | – | – | – | – | – | 0.98 | 0.727 | 1.03 | 0.427 | 0.272 | 0.629 | 0.332 | 0.574 | 0.17 | 0.138 |
| NCI-H1755 | 0.452 | 0.442 | 0.429 | 0.316 | 0.328 | 0.945 | 0.953 | 0.716 | 0.352 | 0.262 | 0.958 | 0.965 | 0.843 | 0.355 | 0.278 | 0.445 | 0.402 | 0.315 | 0.222 | 0.207 |
| NCI-H2228 | 0.767 | 0.328 | 0.352 | 0.192 | 0.259 | 0.612 | 0.866 | 0.186 | 0.187 | 0.272 | 1.01 | 0.849 | 0.208 | 0.182 | 0.18 | 0.381 | 0.472 | 0.176 | 0.132 | 0.181 |
| NCI-H2087 | 0.232 | 0.185 | 0.24 | 0.0808 | 0.106 | 1.18 | 0.953 | 0.311 | 0.169 | 0.142 | 0.768 | 0.782 | 0.484 | 0.167 | 0.131 | 0.8 | 0.656 | 0.583 | 0.117 | 0.075 |

Source: the supplement of paper PMC10307832
